Laboratory results: article PMC12775434, “Ultra-large virtual screening unveils potent agonists of the neuromodulatory orphan receptor GPR139” (Nature Communications, 2025)
Values joined by “and” are separate entries in the source; they are usually repeats but may differ in a detail not shown here. Equal values may be shown once.

How the values were obtained:
GPR139 (GoA activation) = target: T1, GPR139 (GoA activation) (Homo sapiens, UniProt Q6DWJ6); assay: BRET G protein activation (dissociation) assay, GoA, HEK293A; format: cell-based; conditions: for G protein activation, GoA: individual replicates, listed as JNJ (S)
T1 construct: expressed in transfected cells; host or cells: HEK293A (transient, Lipofectamine 2000)
T1 sequence (Q6DWJ6 1-353): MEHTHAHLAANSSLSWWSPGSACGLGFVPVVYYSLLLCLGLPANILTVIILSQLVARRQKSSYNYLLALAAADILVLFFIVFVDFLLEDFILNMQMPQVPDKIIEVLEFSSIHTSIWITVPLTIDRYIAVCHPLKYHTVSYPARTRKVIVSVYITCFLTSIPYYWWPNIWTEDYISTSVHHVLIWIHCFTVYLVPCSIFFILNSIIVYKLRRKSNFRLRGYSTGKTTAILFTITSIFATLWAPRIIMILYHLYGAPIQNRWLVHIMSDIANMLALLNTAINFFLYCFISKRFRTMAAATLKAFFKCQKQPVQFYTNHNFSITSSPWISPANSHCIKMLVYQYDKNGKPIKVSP
Experimental: (§1) Primary screening and pharmacological characterization of compounds were performed using a CHO-K1 cell line that stably expresses human GPR139 (GPR139-CHOk1). The GPR139-CHOk1 cell line was kindly provided by H. Lundbeck A/S, Denmark[24]. GPR139-CHOk1 cells were grown in Ham’s F-12 Kaighn’s Modification Medium (ThermoFisher #21127030) supplemented with 10% dialyzed fetal bovine serum (US origin, ThermoFisher #26400044), 100 units/mL Penicillin-Streptomycin (ThermoFisher #15140122), and 1 mg/mL Geneticin (ThermoFisher #11811031). […] M1R-CHOk1 cells were purchased from The Missouri S&T cDNA Resource Center (#CEM100TN00). M1R-CHOk1 cells were grown in Ham’s F12 Medium (ThermoFisher #21765029) supplemented with 10% fetal bovine serum (Brazilian origin, ThermoFisher #10270106), 100 units/mL Penicillin-Streptomycin, and 0.25 mg/mL Geneticin. HEK293A cells transiently transfected with GPR139 were used for additional pharmacological assessment of signaling pathways activated by GPR139. HEK239A cells were generously provided by Dr. Asuka Inoue, Tohoku University, Japan. HEK293A cells were grown in Dulbecco’s Modified Eagle Medium (ThermoFisher #31966047) supplemented with 10% dialyzed fetal bovine serum and 100 units/mL Penicillin-Streptomycin. Cell lines were maintained at 37 °C in humidified incubator equilibrated with 5% CO2.
(§2) The G protein dissociation assay developed by the lab of Kirill A. Martemyanov was used to measure the coupling of multiple G proteins by GPR139[57]. The assay was performed as described previously with minor modifications. HEK293A cells were reverse transfected 20–24 h prior to assay. 50,000 cells were plated in each well of white opaque tissue culture treated 96-well plates (PerkinElmer #6005680) previously coated with poly-D-lysine. Transfection solutions were prepared as described, and 10 µL transfection solution was mixed with 100 µL cells in each well. The cells in each well were transfected with 18.9 ng GPR139, 6.3 ng Venus 1-155 Gγ2, 6.3 ng Venus 159-239 Gβ1, 6.3 ng masGRK3ct-NanoLuc and 12.6 ng Gαi2, 12.6 ng Gαi3, 12.6 ng GαoA, 12.6 ng Gαq or 25.2 ng Gα12 using 375 nL Lipofectamine 2000 Transfection Reagent. Transfections with Gαq and Gα12 contained 6.3 ng DNA of the active subunit S1 of pertussis toxin (PTX-S1). Each transfection was normalized to 150 ng total DNA with pcDNA3.1. The BRET biosensors were a kind gift from the Martemyanov lab. On the day of the experiment the cells were washed with HEPES buffer. Test compounds were diluted in HEPES buffer from DMSO stocks (final DMSO concentration of maximally 0.3%). NanoLuc Luciferase substrate NanoGlo—furimazine (Promega #N1120) was diluted 1000-fold (final) in HEPES buffer. NanoGlo and test compounds were added, and measurements were performed after 10 s for Gi3, 15 s for Gi2 and GoA, 20 s for Gq, and 90 s for G12—the timepoint where maximal signal occurred with each G protein, ensuring proper determination of the potency for the G protein coupling. Simultaneous dual emission was measured at 535 nm and 475 nm on LUMIstar Omega Microplate Reader (BMG Labtech) at room temperature. The BRET ratio of 535 nm/475 nm (Venus/NanoLuc), reflecting the dissociation of the G protein heterotrimer, was used to determine the G protein activation. The basal BRET ratio obtained with buffer condition was subtracted from the absolute BRET ratio at a given test compound concentration, and the responses were normalized to the one obtained with 10 µM JNJ-63533054 for the activation of Gi2.
(§3) Pharmacological data and statistical analyses were performed in GraphPad Prism v9–10 (Graphpad Software Inc., San Diego, CA), which are also specifically described in the figure and table legends. […]

GPR139 (Gi2 activation) = target: T2, GPR139 (Gi2 activation) (Homo sapiens, UniProt Q6DWJ6); assay: BRET G protein activation (dissociation) assay, Gi2, HEK293A; format: cell-based; conditions: for G protein activation, Gi2: individual replicates, listed as JNJ (S)
T2 construct: expressed in transfected cells; host or cells: HEK293A (transient, Lipofectamine 2000)
T2 sequence (Q6DWJ6 1-353): T1 sequence (Q6DWJ6 1-353)
Experimental: as §1, §2, §3

[1] = HEK293-A, normalized to JNJ-63533054 (JNJ(S))

For CC(NC(=O)CNC(=O)c1cccc(Cl)c1)c1ccccc1 (centres unmarked) [JNJ-63533054, reference compound], the Emax (GPR139 (GoA activation); [1]) was 114 ± 2%, the EC50 (GPR139 (GoA activation); Supplementary Table 6) was 79.4 nM and the “G protein activation, GoA” value (GPR139 (GoA activation); log [compound] M -4.5) was 119 % of JNJ-63533054 at Gi2 (2×) and 112 % of JNJ-63533054 at Gi2. For the same molecule, the “G protein activation, GoA” value (GPR139 (GoA activation); log [compound] M -5.0) was 117 % of JNJ-63533054 at Gi2 (2×) and 106 % of JNJ-63533054 at Gi2, the “G protein activation, GoA” value (GPR139 (GoA activation); log [compound] M -5.5) was 113 % of JNJ-63533054 at Gi2 and 106 % of JNJ-63533054 at Gi2 (2×) and the “G protein activation, GoA” value (GPR139 (GoA activation); log [compound] M -6.0) was 108 % of JNJ-63533054 at Gi2 and 94 % of JNJ-63533054 at Gi2 and 102 % of JNJ-63533054 at Gi2. The “G protein activation, GoA” value (GPR139 (GoA activation); log [compound] M -6.5) was 97 % of JNJ-63533054 at Gi2 and 82 % of JNJ-63533054 at Gi2 and 91 % of JNJ-63533054 at Gi2, the “G protein activation, GoA” value (GPR139 (GoA activation); log [compound] M -7.0) was 74 % of JNJ-63533054 at Gi2 and 64 % of JNJ-63533054 at Gi2 and 65 % of JNJ-63533054 at Gi2 and the “G protein activation, GoA” value (GPR139 (GoA activation); log [compound] M -7.5) was 43 % of JNJ-63533054 at Gi2 and 34 % of JNJ-63533054 at Gi2 and 33 % of JNJ-63533054 at Gi2. The “G protein activation, GoA” value (GPR139 (GoA activation); log [compound] M -8.0) was 17 % of JNJ-63533054 at Gi2 and 12 % of JNJ-63533054 at Gi2 and 13 % of JNJ-63533054 at Gi2, the Emax (GPR139 (Gi2 activation); [1]) was 109 ± 1% and the EC50 (GPR139 (Gi2 activation); Supplementary Table 6, read-out: pEC50 Gi2 (converted)) was 50.1 nM. For the same molecule, the “G protein activation, Gi2” value (GPR139 (Gi2 activation); log [compound] M -4.5) was 109 % of JNJ-63533054 at Gi2 and 111 % of JNJ-63533054 at Gi2 and 108 % of JNJ-63533054 at Gi2, the “G protein activation, Gi2” value (GPR139 (Gi2 activation); log [compound] M -5.0) was 106 % of JNJ-63533054 at Gi2 and 107 % of JNJ-63533054 at Gi2 and 108 % of JNJ-63533054 at Gi2 and the “G protein activation, Gi2” value (GPR139 (Gi2 activation); log [compound] M -5.5) was 107 % of JNJ-63533054 at Gi2 and 103 % of JNJ-63533054 at Gi2 and 104 % of JNJ-63533054 at Gi2. For the same molecule, the “G protein activation, Gi2” value (GPR139 (Gi2 activation); log [compound] M -6.0) was 102 % of JNJ-63533054 at Gi2 and 99 % of JNJ-63533054 at Gi2 and 98 % of JNJ-63533054 at Gi2, the “G protein activation, Gi2” value (GPR139 (Gi2 activation); log [compound] M -6.5) was 92 % of JNJ-63533054 at Gi2 and 85 % of JNJ-63533054 at Gi2 (2×) and the “G protein activation, Gi2” value (GPR139 (Gi2 activation); log [compound] M -7.0) was 75 % of JNJ-63533054 at Gi2 and 67 % of JNJ-63533054 at Gi2 and 70 % of JNJ-63533054 at Gi2. For the same molecule, the “G protein activation, Gi2” value (GPR139 (Gi2 activation); log [compound] M -7.5) was 49 % of JNJ-63533054 at Gi2 and 44 % of JNJ-63533054 at Gi2 (2×) and the “G protein activation, Gi2” value (GPR139 (Gi2 activation); log [compound] M -8.0) was 21 % of JNJ-63533054 at Gi2 (2×) and 20 % of JNJ-63533054 at Gi2.
